Key:
[1] = system: alcoholic liver cirrhosis; details: oral SAMe, compared with a placebo treated group; cited from earlier work
Caco-2 cells = test: In vitro Caco-2 permeability assay (apical to basolateral); details: for mean A->B Papp: analyte SAMe, test compound 2 mM, A side pH 6.5, B side pH 7.4, 2 hours
Protocol: The following in vitro permeability assay was conducted to determine the efficacy of certain absorption enhancers in increasing the permeability of a IPA salt of SAMe, or a pharmaceutically acceptable salt thereof, of the invention. See Stewart, B H, et al. (1995) “Comparison of intestinal permeabilities determined in multiple in vitro and in situ models: Relationship to absorption in humans,” Pharm. Res. 12:693.
The test compound was the IPA salt of SAMe 1,4-butanedisulfonate (the product of Synthetic Example 2) (SAMeIPA). The concentration of the test compound used in the assay was 2 mM.
The signal was optimized for each test formulation by ESI positive or negative ionization mode. An MS2 scan or a SIM scan was used to optimize the fragmenter voltage and a product ion analysis was used to identify the best fragment for analysis, and the collision energy was optimized using a product ion or MRM scan. An ionization ranking was assigned indicating the formulation's ease of ionization.
Samples were analyzed by LC/MS/MS using an Agilent 6410 mass spectrometer coupled with an Agilent 1200 HPLC and a CTC PAL chilled autosampler, all controlled by MassHunter software (Agilent). After separation on a C18 reverse phase HPLC column (Agilent, Waters, or equivalent) using an acetonitrile-water gradient system, peaks were analyzed by mass spectrometry (MS) using ESI ionization in MRM mode.
The permeability of SAMe and IPA were measured independently. […]
For Apical to Basolateral (A->B) permeability, the test formulation was added to the apical (A) side and amount of permeation is determined on the basolateral (B) side; for Basolateral to Apical (B>A) permeability, the test formulation was added to the B side and the amount of permeation was determined on the A side. […]
To verify the Caco-2 cell monolayers were properly formed, aliquots of the cell buffers were analyzed by fluorescence to determine the transport of the impermeable dye Lucifer Yellow.
Data was expressed as apparent permeability (Papp). […]

[2] = Storage stability at room temperature, checked by UV absorption spectra and HPLC; type: physicochemical; details: for maximum absorption peak at 420 nm (toxic degradation products of incorporated IPA): UV absorption spectra, initial and after eight months at room temperature; for SAMe degradation products by HPLC or UV absorption spectra: stored for eight months at room temperature
From the text: Stability of the IPA salt can be assessed by the method disclosed in Bottiglieri, T. (1990), Biomed Chromatogr, 4(6):239-41.
Ultraviolet-visible light absorption spectra were obtained for the product of Synthetic Example 1 and the product of Synthetic Example 2 (see FIG. 1 and FIG. 2, respectively). An ultraviolet-visible light absorption spectrum was also obtained at the same time for a blank sample (see FIG. 5) for control purposes.
The product of Synthetic Example 1 and the product of Synthetic Example 2 were then stored for eight months at room temperature, after which ultraviolet-visible light absorption spectra were obtained for the stored products (see […] and FIG. 4). An ultraviolet-visible light absorption spectrum was also obtained at the same time for a blank sample (see FIG. 6) for control purposes.
This is in stark contrast to the unstable nature of, for example, previously known salts of SAMe, such as the tosylate or 1,4-butanedisulfonate salts, the stability of which can be determined in the same manner as described herein.

Compound	overall mortality and/or progression to liver transplant [1]	mean A->B Papp (Caco-2 cells)	mean A->B Papp (Caco-2 cells; listed as S-adenosyl-L-methionine 1,4-butanedisulfonate indole-3-propionate salt)	fold increase in S-adenosyl-L-methionine permeability (Caco-2 cells; using trimethyl chitosan homopolymer as the absorption enhancer)	maximum absorption peak at 420 nm (toxic degradation products of incorporated IPA) [2]	SAMe degradation products by HPLC or UV absorption spectra [2]
C[S+](CC[C@H](N)C(=O)O)C[C@H]1O[C@@H](n2cnc3c(N)ncnc32)[C@H](O)[C@@H]1O (stereo partly drawn) [SAMe, S-adenosyl-L-methionine]	12%	–	–	–	–	–
S-Adenosyl-L-methionine 1,4-butanedisulfonate indole-3-propionate [SAMeIPA]	–	0.20	low	37.5 fold	no maximum absorption peaks at 420 nm were noted	No SAMe degradation products were detected
S-Adenosyl-L-methionine p-toluenesulfonate indole-3-propionate [Synthetic Example 1]	–	–	–	–	no maximum absorption peaks at 420 nm were noted	No SAMe degradation products were detected

— patent US9534010B2, “Stable indole-3-propionate salts of S-adenosyl-L-methionine” (HEBERT SAM-E LLC, priority 2013, dated 2017)
